Patent US11535643B2, “Macrolides with modified desosamine sugars and uses thereof” (President and Fellows of Harvard College, priority 2015, dated 2022)
≈ marks a conversion by molar mass, not a printed value. Read-outs that look alike come from different tables or passages of the source.

Tests used:
Format in all cases: cell-based
S. pneumoniae = test: Broth dilution MIC determination (CLSI) against S. pneumoniae strains; details: for MIC: Streptococcus pneumoniae
Outline: (§1)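 Strains, including multidrug-resistant and macrolide-resistant ones, were exposed to macrolides in broth dilution per CLSI standards, and the lowest inhibiting concentration was recorded as MIC. Azithromycin and solithromycin were run alongside.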

S. pyogenes = test: Broth dilution MIC determination (CLSI) against S. pyogenes strains; details: for MIC: Streptococcus pyogenes
Outline: as §1

E. coli = test: Broth dilution MIC determination (CLSI) against E. coli strains; details: for MIC: Escherichia coli
Outline: as §1

E. faecalis = test: Broth dilution MIC determination (CLSI) against E. faecalis strains; details: for MIC: Enterococcus faecalis
Outline: as §1

H. influenzae = test: Broth dilution MIC determination (CLSI) against H. influenzae strains; details: Haemophilus influenzae
Description: Minimum inhibitory concentrations (MICs) for macrolides described herein have been determined for unique strains of S. aureus, S. pneumoniae, S. pyogenes, E. faecalis, E. coli, A. baumannii, K. pneumoniae, P. aeruginosa, and H. influenzae, including several multidrug-resistant strains, with a special focus on macrolide resistant mechanisms. Azithromycin and solithromycin were included as control compounds. CLSI standard procedures for broth dilution MIC determination were used. Data for exemplary compounds described herein is shown in Tables M1-M7 and in Tables N1-N4.

K. pneumoniae = test: Broth dilution MIC determination (CLSI) against K. pneumoniae strains; details: for MIC: Klebsiella pneumoniae
Outline: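 Azithromycin and solithromycin served as controls; MICs were obtained by standard CLSI broth dilution on a strain panel including multidrug-resistant and macrolide-resistant isolates.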

A. baumannii = test: Broth dilution MIC determination (CLSI) against A. baumannii strains; details: for MIC: Acinetobacter baumannii
Outline: as §1

S. aureus = test: Broth dilution MIC determination (CLSI) against S. aureus strains; details: for MIC: Staphylococcus aureus
Outline: as §1

P. aeruginosa = test: Broth dilution MIC determination (CLSI) against P. aeruginosa strains; details: for MIC: Pseudomonas aeruginosa
Outline: as §1

With `CC[C@H]1OC(=O)[C@H](C)C(=O)[C@H](C)[C@@H](O[C@@H]2OC(CN(CCN)CCN)CC(N(C)C)C2O)[C@](C)(OC)C[C@@H](C)CN[C@H](C)[C@H]2N(CCCCn3cc(-c4cccc(N)c4)nn3)C(=O)O[C@]12C` (stereo partly shown) [FSM-21877] as the molecule, how does the MIC (S. pneumoniae; ATCC49619, ATCC49619, read-out: MIC S. pneumoniae ATCC49619) read?
Its MIC is 1 µg/mL (≈ 1.08 µM).

And the MIC (S. pneumoniae; erm B + mef A genotype, read-out: MIC S. pneumoniae erm B + mef A genotype)?
Its MIC is 32 µg/mL.

And the MIC (S. pneumoniae; erm B + tet(M, O) genotype, read-out: MIC S. pneumoniae erm B + tet(M, O) genotype)?
The MIC was 0.5 µg/mL.

What about the MIC (S. pneumoniae; read-out: MIC S. pneumoniae mef A genotype, mef A genotype) of the same molecule?
Its MIC is 16 µg/mL (≈ 17.2 µM).

And the MIC (S. pneumoniae; read-out: MIC S. pneumoniae mef A genotype, mef A genotype, first of two such columns (c3))?
Its MIC is 8 µg/mL (≈ 8.61 µM).

And the MIC (S. pyogenes; ATCC19615, ATCC19615, read-out: MIC S. pyogenes ATCC19615)?
The MIC was 0.5 µg/mL (≈ 0.538 µM).

And the MIC (S. pyogenes; macrolide-resistant, read-out: MIC S. pyogenes macrolide-resistant)?
Its MIC is 16 µg/mL (≈ 17.2 µM).

What about the MIC (E. coli; ATCC25922, ATCC25922, read-out: MIC E. coli ATCC25922) of the same molecule?
The MIC was over 32 µg/mL.

And the MIC (E. coli; read-out: MIC E. coli NDM-1, NDM-1)?
The MIC was 32 µg/mL (≈ 34.4 µM).

And the MIC (E. faecalis; ATCC29212, ATCC29212, read-out: MIC E. faecalis ATCC29212)?
Its MIC is 8 µg/mL (≈ 8.61 µM).

What about the MIC (E. faecalis; Vancomycin-resistant, read-out: MIC E. faecalis Vancomycin-resistant) of the same molecule?
Its MIC is over 32 µg/mL.

And the MIC (H. influenzae; ATCC49247, ATCC49247, read-out: MIC H. influenzae ATCC49247)?
Its MIC is 32 µg/mL (≈ 34.4 µM).

What about the MIC (H. influenzae; erythro > 4, azithro 1, read-out: MIC H. influenzae erythro > 4, azithro 1) of the same molecule?
The MIC was 32 µg/mL (≈ 34.4 µM).

And the MIC (K. pneumoniae; ATCC10031, ATCC10031, read-out: MIC K. pneumoniae ATCC10031)?
Its MIC is 16 µg/mL (≈ 17.2 µM).

And the MIC (K. pneumoniae; KPC-2, read-out: MIC K. pneumoniae KPC-2)?
Its MIC is 32 µg/mL (≈ 34.4 µM).

And the MIC (A. baumannii; ATCC19606, ATCC19606, read-out: MIC A. baumannii ATCC19606)?
Its MIC is over 32 µg/mL.

And the MIC (A. baumannii; imipenem-resistant, read-out: MIC A. baumannii imipenem-resistant)?
The MIC was over 32 µg/mL.

And the MIC (S. aureus; ATCC29213, ATCC29213, read-out: MIC S. aureus ATCC29213)?
The MIC was over 32 µg/mL.

And the MIC (S. aureus; MRSA / USA100, MRSA: USA100, read-out: MIC S. aureus MRSA: USA100)?
Its MIC is over 32 µg/mL.

And the MIC (S. aureus; MRSA / USA300, MRSA: USA300, read-out: MIC S. aureus MRSA: USA300)?
The MIC was over 32 µg/mL.

And the MIC (S. aureus; USA600, USA600, GISA, read-out: MIC S. aureus USA600, GISA)?
The MIC was over 32 µg/mL.

What about the MIC (S. aureus; read-out: MIC S. aureus erm A genotype) of the same molecule?
Its MIC is over 32 µg/mL.

What about the MIC (P. aeruginosa; ATCC27853, read-out: MIC P. aeruginosa ATCC27853) of the same molecule?
Its MIC is over 32 µg/mL.

Which results are given for `CC[C@H]1OC(=O)[C@H](C)C(=O)[C@H](C)[C@@H](O[C@@H]2O[C@H](C)CC(N3CCCC3)C2O)[C@](C)(OC)C[C@@H](C)CN[C@H](C)[C@H]2N(CCCCn3cc(-c4cccc(N)c4)nn3)C(=O)O[C@]12C` (stereo partly shown) [FSM-120361]?
MIC (S. pneumoniae; ATCC49619, ATCC49619, Strain No. MP-21, read-out: MIC S. pneumoniae ATCC49619): 0.25 µg/mL (≈ 0.293 µM); MIC (S. pneumoniae; read-out: MIC S. pneumoniae mefA, mefA, Strain No. MP-626 UNT-038): 0.125 µg/mL (≈ 0.146 µM); MIC (S. pneumoniae; read-out: MIC S. pneumoniae mefA, mefA, Strain No. MP-627 UNT-039): 0.125 µg/mL (≈ 0.146 µM); MIC (S. pyogenes; ATCC19615, ATCC19615, Strain No. MP-19, read-out: MIC S. pyogenes ATCC19615): 0.06 µg/mL (≈ 0.0702 µM); MIC (S. pyogenes; mac resistant, Strain No. MP-625 UNT-014, read-out: MIC S. pyogenes mac resistant): 0.5 µg/mL (≈ 0.585 µM); MIC (E. coli; ATCC25922, ATCC25922, Strain No. MP-4, read-out: MIC E. coli ATCC25922): 32 µg/mL (≈ 37.5 µM); MIC (E. coli; ATCC25922, ATCC25922:tolC, Strain No. MP-9, read-out: MIC E. coli ATCC25922:tolC): 4 µg/mL (≈ 4.68 µM); MIC (E. coli; clinical, Strain No. MP541, read-out: MIC E. coli clinical): 32 µg/mL (≈ 37.5 µM); MIC (E. coli; clinical-cErm, Strain No. MP532, read-out: MIC E. coli clinical-cErm): > 64 µg/mL; MIC (E. faecalis; ATCC29212, ATCC29212, Strain No. MP-24, read-out: MIC E. faecalis ATCC29212): 4 µg/mL (≈ 4.68 µM); MIC (E. faecalis; van resistant, Strain No. UNT-039, read-out: MIC E. faecalis van resistant): > 64 µg/mL; MIC (K. pneumoniae; ATCC10031, ATCC10031, Strain No. MP-14, read-out: MIC K. pneumoniae ATCC10031): 4 µg/mL (≈ 4.68 µM); MIC (K. pneumoniae; clinical, Strain No. MP546, read-out: MIC K. pneumoniae clinical): > 64 µg/mL; MIC (K. pneumoniae; clinical, Strain No. MP548, read-out: MIC K. pneumoniae clinical): 64 µg/mL (≈ 74.9 µM); MIC (A. baumannii; ATCC19606, ATCC19606, Strain No. MP-15, read-out: MIC A. baumannii ATCC19606): 32 µg/mL (≈ 37.5 µM); MIC (A. baumannii; clinical, Strain No. MP576, read-out: MIC A. baumannii clinical): > 64 µg/mL; MIC (A. baumannii; clinical, Strain No. MP577, read-out: MIC A. baumannii clinical): 64 µg/mL (≈ 74.9 µM); MIC (S. aureus; ATCC29213, ATCC29213, Strain No. MP-12, read-out: MIC S. aureus ATCC29213): 32 µg/mL (≈ 37.5 µM); MIC (S. aureus; ATCCBAA977, ATCCBAA-977, Strain No. MP-17, read-out: MIC S. aureus ATCCBAA-977): 32 µg/mL (≈ 37.5 µM); MIC (S. aureus; MRSA / USA100, USA100, Strain No. MP-618 UNT-096, read-out: MIC S. aureus (MRSA) USA100): > 64 µg/mL; MIC (S. aureus; MRSA / USA300, USA300, Strain No. MP-549, read-out: MIC S. aureus (MRSA) USA300): 32 µg/mL (≈ 37.5 µM); MIC (S. aureus; MRSA / USA600, GISA USA600, Strain No. MP-619 UNT-120, read-out: MIC S. aureus (MRSA) GISA USA600): > 64 µg/mL; MIC (S. aureus; MRSA, ST-228 cErm, Strain No. MP-513, read-out: MIC S. aureus (MRSA) ST-228 cErm): > 64 µg/mL; MIC (P. aeruginosa; PAO1, read-out: MIC P. aeruginosa PAO1): > 64 µg/mL; MIC (P. aeruginosa; PAO1, read-out: MIC P. aeruginosa PAO1:mex): 16 µg/mL (≈ 18.7 µM); MIC (P. aeruginosa; ATCC27853, Strain No. MP-3, read-out: MIC P. aeruginosa ATCC27853): > 64 µg/mL

What does the source list for `CCC1OC(=O)C(C)C(=O)C(C)C(OC2OC(C)CC(n3cccc3)C2O)C(C)(OC)CC(C)CNC(C)C2N(CCCCn3cc(-c4cccc(N)c4)nn3)C(=O)OC12C` (stereo not shown) [FSM-120362]?
MIC S. pneumoniae ATCC49619 (S. pneumoniae; ATCC49619, Strain No. MP-21): 8 µg/mL (≈ 9.41 µM); MIC S. pneumoniae mefA (S. pneumoniae; Strain No. MP-626 UNT-038): 4 µg/mL (≈ 4.71 µM); MIC S. pneumoniae mefA (S. pneumoniae; Strain No. MP-627 UNT-039): 8 µg/mL (≈ 9.41 µM); MIC S. pyogenes ATCC19615 (S. pyogenes; ATCC19615, Strain No. MP-19): 2 µg/mL (≈ 2.35 µM); MIC S. pyogenes mac resistant (S. pyogenes; mac resistant, Strain No. MP-625 UNT-014): 16 µg/mL (≈ 18.8 µM); MIC E. coli ATCC25922 (E. coli; ATCC25922, Strain No. MP-4): >32 µg/mL; MIC E. coli ATCC25922:tolC (E. coli; ATCC25922:tolC, Strain No. MP-9): >64 µg/mL; MIC E. coli clinical (E. coli; clinical, Strain No. MP541): >32 µg/mL; MIC E. coli clinical-cErm (E. coli; clinical-cErm, Strain No. MP532): >32 µg/mL; MIC E. faecalis ATCC29212 (E. faecalis; ATCC29212, Strain No. MP-24): 64 µg/mL (≈ 75.3 µM); MIC E. faecalis van resistant (E. faecalis; van resistant, Strain No. UNT-039): >32 µg/mL; MIC K. pneumoniae ATCC10031 (K. pneumoniae; ATCC10031, Strain No. MP-14): >64 µg/mL; MIC K. pneumoniae clinical (K. pneumoniae; clinical, Strain No. MP546): >32 µg/mL; MIC K. pneumoniae clinical (K. pneumoniae; clinical, Strain No. MP548): >32 µg/mL; MIC A. baumannii ATCC19606 (A. baumannii; ATCC19606, Strain No. MP-15): >64 µg/mL; MIC A. baumannii clinical (A. baumannii; clinical, Strain No. MP576): >32 µg/mL; MIC A. baumannii clinical (A. baumannii; clinical, Strain No. MP577): >32 µg/mL; MIC S. aureus ATCC29213 (S. aureus; ATCC29213, Strain No. MP-12): >64 µg/mL; MIC S. aureus ATCCBAA-977 (S. aureus; ATCCBAA-977, Strain No. MP-17): >64 µg/mL; MIC S. aureus (MRSA) GISA USA600 (S. aureus; GISA USA600, Strain No. MP-619 UNT-120): >32 µg/mL; MIC S. aureus (MRSA) ST-228 cErm (S. aureus; ST-228 cErm, Strain No. MP-513): >64 µg/mL; MIC S. aureus (MRSA) USA100 (S. aureus; USA100, Strain No. MP-618 UNT-096): >64 µg/mL; MIC S. aureus (MRSA) USA300 (S. aureus; USA300, Strain No. MP-549): >64 µg/mL; MIC S. aureus (MRSA) ermA phenotype (S. aureus; ermA phenotype, Strain No. MP-620 UNT-146): >32 µg/mL; MIC P. aeruginosa ATCC27853 (P. aeruginosa; ATCC27853, Strain No. MP-3): >32 µg/mL; MIC P. aeruginosa PAO1 (P. aeruginosa; PAO1, Strain No. MP-7): >32 µg/mL; MIC P. aeruginosa PAO1:mex (P. aeruginosa; PAO1:mex, Strain No. MP-8): >64 µg/mL
